Like-named read-outs stand apart in the source and are kept apart here.
Legend:
Type in all cases: in vivo
[1] = test system: barnyardgrass (Echinochloa crus-galli); test: Test B flooded paddy test; settings: Echinochloa crus-galli, Flood, 1000 g ai/ha; scale 0 (no effect) to 100 (complete control); read-out: Plant response rating, Barnyardgrass
In short: (§1)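 Visual injury scoring (0 = no effect, 100 = complete control) versus controls made 13 to 15 days after treatment in the greenhouse. Test species were grown in flooded paddy to the 2-leaf stage: rice, barnyardgrass, umbrella sedge, duck salad.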

rice (Oryza sativa) = test: Test B flooded paddy test; settings: Oryza sativa, Flood, 1000 g ai/ha; scale 0 to 100; read-out: Plant response rating, Rice
In short: as §1

[2] = test system: umbrella sedge (Cyperus difformis); test: Test B flooded paddy test; settings: Cyperus difformis, Flood, 1000 g ai/ha; scale 0 to 100; read-out: Plant response rating, Sedge, Umbrella
In short: as §1

[3] = test system: duck salad (Heteranthera limosa); test: Test B flooded paddy test; settings: Heteranthera limosa, Flood, 1000 g ai/ha; scale 0 to 100; read-out: Plant response rating, Ducksalad
In short: as §1

[4] = test system: Surinam grass (Brachiaria decumbens); test: Test B pre/postemergence; settings: Urochloa decumbens; for pest or weed control at 125 g/ha: 125 g ai/ha; for pest or weed control at 500 g/ha: 500 g ai/ha
In short: (§2)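 Pre: compound (non-phytotoxic solvent + surfactant) applied to freshly planted seeds. Post: same formulation sprayed on 2–18 cm plants, 1- to 4-leaf. Readout: visual control rating 0–100 vs controls, 13–15 d, greenhouse.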

[5] = test system: barnyardgrass (Echinochloa crus-galli); test: Test B pre/postemergence; settings: Echinochloa crus-galli; for pest or weed control at 125 g/ha: 125 g ai/ha; for pest or weed control at 500 g/ha: 500 g ai/ha
In short: as §2

[6] = test system: giant foxtail (Setaria faberii); test: Test B pre/postemergence; settings: Setaria faberi; for pest or weed control at 125 g/ha: 125 g ai/ha; for pest or weed control at 500 g/ha: 500 g ai/ha
In short: as §2

[7] = test system: cocklebur (Xanthium strumarium); test: Test B pre/postemergence; settings: Xanthium strumarium; for pest or weed control at 125 g/ha: 125 g ai/ha; for pest or weed control at 500 g/ha: 500 g ai/ha
In short: as §2

[8] = test system: wheat (Triticum aestivum); test: Test B pre/postemergence; settings: Triticum aestivum; for plant injury at 125 g/ha: 125 g ai/ha; for plant injury at 500 g/ha: 500 g ai/ha
In short: as §2

[9] = test system: lambsquarters (Chenopodium album); test: Test B pre/postemergence; settings: Chenopodium album; for pest or weed control at 125 g/ha: 125 g ai/ha; for pest or weed control at 500 g/ha: 500 g ai/ha
In short: as §2

corn (Zea mays) = test: Test B pre/postemergence; settings: Zea mays
In short: as §2

[10] = test system: pigweed (Amaranthus retroflexus); test: Test B pre/postemergence; settings: Amaranthus retroflexus; for pest or weed control at 125 g/ha: 125 g ai/ha; for pest or weed control at 500 g/ha: 500 g ai/ha
In short: as §2

[11] = test system: velvetleaf (Abutilon theophrasti); test: Test B pre/postemergence; settings: Abutilon theophrasti; for pest or weed control at 125 g/ha: 125 g ai/ha; for pest or weed control at 500 g/ha: 500 g ai/ha
In short: as §2

[12] = test system: morningglory (Ipomoea coccinea); test: Test B pre/postemergence; settings: Ipomoea; for pest or weed control at 125 g/ha: 125 g ai/ha; for pest or weed control at 500 g/ha: 500 g ai/ha
In short: as §2

[13] = test system: crabgrass (Digitaria sanguinalis); test: Test B pre/postemergence; settings: Digitaria sanguinalis; for pest or weed control at 125 g/ha: 125 g ai/ha; for pest or weed control at 500 g/ha: 500 g ai/ha
In short: as §2

wild oat (Avena fatua) = test: Test B postemergence; settings: Avena fatua, post-emergence
In short: as §2

[14] = test system: blackgrass (Alopecurus myosuroides); test: Test B postemergence; settings: Alopecurus myosuroides, post-emergence
In short: as §2

[15] = pre-emergence, Preemergence, scale 0 to 100 (0 no effect, 100 complete control), read-out: Plant response rating, Wheat

`COC(=O)c1nc(C2CC2)nc(NO)c1Br` [Compound 35] gave a pest or weed control at 1000 g/ha [1] of 0%, a plant injury at 1000 g/ha (rice (Oryza sativa)) of 0% and a pest or weed control at 1000 g/ha [2] of 0%. For the same compound, the pest or weed control at 1000 g/ha [3] was 0%, the pest or weed control at 125 g/ha ([4]; post-emergence, Postemergence, scale 0 to 100 (0 no effect, 100 complete control), read-out: Surinam Grass plant response rating) was 20% and the pest or weed control at 500 g/ha ([4]; post-emergence, Postemergence, scale 0 to 100, read-out: Plant response rating, Surinam Grass) was 80%. It also gave a pest or weed control at 125 g/ha ([4]; pre-emergence, Preemergence, scale 0 to 100 (0 no effect, 100 complete control), read-out: Plant response rating, Surinam Grass) of 10%, a pest or weed control at 500 g/ha ([4]; pre-emergence, Preemergence, scale 0 to 100 (0 no effect, 100 complete control), read-out: Surinam Grass plant response rating) of 60% and a pest or weed control at 125 g/ha ([5]; post-emergence, Postemergence, scale 0 to 100 (0 no effect, 100 complete control), read-out: Barnyardgrass plant response rating) of 40%. For the same compound, the pest or weed control at 500 g/ha ([5]; post-emergence, Postemergence, scale 0 to 100, read-out: Plant response rating, Barnyardgrass) was 90%, the pest or weed control at 125 g/ha ([5]; pre-emergence, Preemergence, scale 0 to 100 (0 no effect, 100 complete control), read-out: Plant response rating, Barnyardgrass) was 10% and the pest or weed control at 500 g/ha ([5]; pre-emergence, Preemergence, scale 0 to 100 (0 no effect, 100 complete control), read-out: Barnyardgrass plant response rating) was 80%. The pest or weed control at 125 g/ha ([6]; post-emergence, Postemergence, scale 0 to 100 (0 no effect, 100 complete control), read-out: Foxtail, Giant plant response rating) was 10%, the pest or weed control at 500 g/ha ([6]; post-emergence, Postemergence, scale 0 to 100, read-out: Plant response rating, Foxtail, Giant) was 60% and the pest or weed control at 125 g/ha ([6]; pre-emergence, Preemergence, scale 0 to 100 (0 no effect, 100 complete control), read-out: Plant response rating, Foxtail, Giant) was 0%. It also gave a pest or weed control at 500 g/ha ([6]; pre-emergence, Preemergence, scale 0 to 100 (0 no effect, 100 complete control), read-out: Foxtail, Giant plant response rating) of 70%, a pest or weed control at 125 g/ha ([7]; post-emergence, Postemergence, scale 0 to 100 (0 no effect, 100 complete control), read-out: Cocklebur plant response rating) of 30% and a pest or weed control at 500 g/ha ([7]; post-emergence, Postemergence, scale 0 to 100, read-out: Plant response rating, Cocklebur) of 100%. It also gave a pest or weed control at 125 g/ha ([7]; pre-emergence, Preemergence, scale 0 to 100 (0 no effect, 100 complete control), read-out: Plant response rating, Cocklebur) of 60%, a pest or weed control at 500 g/ha ([7]; pre-emergence, Preemergence, scale 0 to 100 (0 no effect, 100 complete control), read-out: Cocklebur plant response rating) of 90% and a plant injury at 125 g/ha ([8]; post-emergence, Postemergence, scale 0 to 100 (0 no effect, 100 complete control), read-out: Wheat plant response rating) of 20%. It also gave a plant injury at 500 g/ha ([8]; post-emergence, Postemergence, scale 0 to 100, read-out: Plant response rating, Wheat) of 60%, a plant injury at 125 g/ha [8, 15] of 20% and a plant injury at 500 g/ha [8, 15] of 50%. The pest or weed control at 125 g/ha ([9]; post-emergence, Postemergence, scale 0 to 100 (0 no effect, 100 complete control), read-out: Lambsquarters plant response rating) was 90%, the pest or weed control at 500 g/ha ([9]; post-emergence, Postemergence, scale 0 to 100, read-out: Plant response rating, Lambsquarters) was 100% and the pest or weed control at 125 g/ha ([9]; pre-emergence, Preemergence, scale 0 to 100 (0 no effect, 100 complete control), read-out: Plant response rating, Lambsquarters) was 90%. The pest or weed control at 500 g/ha ([9]; pre-emergence, Preemergence, scale 0 to 100 (0 no effect, 100 complete control), read-out: Lambsquarters plant response rating) was 100%, the plant injury at 125 g/ha (corn (Zea mays); post-emergence, Postemergence, 125 g ai/ha, scale 0 to 100 (0 no effect, 100 complete control), read-out: Corn plant response rating) was 0% and the Corn plant response rating (crop injury, 0 = no effect, 100 = complete kill) at 500 g/ha (corn (Zea mays); post-emergence, Postemergence, 500 g ai/ha, scale 0 to 100) was 60%. It also gave a Corn plant response rating (crop injury, 0 = no effect, 100 = complete kill) at 125 g/ha (corn (Zea mays); pre-emergence, Preemergence, 125 g ai/ha, scale 0 to 100 (0 no effect, 100 complete control)) of 0%, a plant injury at 500 g/ha (corn (Zea mays); pre-emergence, Preemergence, 500 g ai/ha, scale 0 to 100 (0 no effect, 100 complete control), read-out: Corn plant response rating) of 50% and a pest or weed control at 125 g/ha ([10]; post-emergence, Postemergence, scale 0 to 100 (0 no effect, 100 complete control), read-out: Pigweed plant response rating) of 70%. It also gave a pest or weed control at 500 g/ha ([10]; post-emergence, Postemergence, scale 0 to 100, read-out: Plant response rating, Pigweed) of 100%, a pest or weed control at 125 g/ha ([10]; pre-emergence, Preemergence, scale 0 to 100 (0 no effect, 100 complete control), read-out: Plant response rating, Pigweed) of 80% and a pest or weed control at 500 g/ha ([10]; pre-emergence, Preemergence, scale 0 to 100 (0 no effect, 100 complete control), read-out: Pigweed plant response rating) of 100%. For the same compound, the pest or weed control at 125 g/ha ([11]; post-emergence, Postemergence, scale 0 to 100 (0 no effect, 100 complete control), read-out: Velvetleaf plant response rating) was 50%, the pest or weed control at 500 g/ha ([11]; post-emergence, Postemergence, scale 0 to 100, read-out: Plant response rating, Velvetleaf) was 90% and the pest or weed control at 125 g/ha ([11]; pre-emergence, Preemergence, scale 0 to 100 (0 no effect, 100 complete control), read-out: Plant response rating, Velvetleaf) was 70%. The pest or weed control at 500 g/ha ([11]; pre-emergence, Preemergence, scale 0 to 100 (0 no effect, 100 complete control), read-out: Velvetleaf plant response rating) was 90%, the pest or weed control at 125 g/ha ([12]; post-emergence, Postemergence, scale 0 to 100 (0 no effect, 100 complete control), read-out: Morningglory plant response rating) was 70% and the pest or weed control at 500 g/ha ([12]; post-emergence, Postemergence, scale 0 to 100, read-out: Plant response rating, Morningglory) was 100%. For the same compound, the pest or weed control at 125 g/ha ([12]; pre-emergence, Preemergence, scale 0 to 100 (0 no effect, 100 complete control), read-out: Plant response rating, Morningglory) was 70%, the pest or weed control at 500 g/ha ([12]; pre-emergence, Preemergence, scale 0 to 100 (0 no effect, 100 complete control), read-out: Morningglory plant response rating) was 100% and the pest or weed control at 125 g/ha ([13]; post-emergence, Postemergence, scale 0 to 100 (0 no effect, 100 complete control), read-out: Crabgrass plant response rating) was 20%. It also gave a pest or weed control at 500 g/ha ([13]; post-emergence, Postemergence, scale 0 to 100, read-out: Plant response rating, Crabgrass) of 50%, a pest or weed control at 125 g/ha ([13]; pre-emergence, Preemergence, scale 0 to 100 (0 no effect, 100 complete control), read-out: Plant response rating, Crabgrass) of 30% and a pest or weed control at 500 g/ha ([13]; pre-emergence, Preemergence, scale 0 to 100 (0 no effect, 100 complete control), read-out: Crabgrass plant response rating) of 80%. The pest or weed control at 125 g/ha (wild oat (Avena fatua); 125 g ai/ha, scale 0 to 100 (0 no effect, 100 complete control), read-out: Oat, Wild plant response rating) was 60%, the pest or weed control at 500 g/ha (wild oat (Avena fatua); 500 g ai/ha, scale 0 to 100, read-out: Plant response rating, Oat, Wild) was 60% and the pest or weed control at 125 g/ha ([14]; 125 g ai/ha, scale 0 to 100 (0 no effect, 100 complete control), read-out: Blackgrass plant response rating) was 60%. The pest or weed control at 500 g/ha ([14]; 500 g ai/ha, scale 0 to 100, read-out: Plant response rating, Blackgrass) was 70%.

Source: patent publication US8802597B2, “Herbicidal pyrimidines” (E I du Pont de Nemours and Company, priority 2003, dated 2014)
